Marks after values point to notes of the source that are not given here.
What was measured:
[1] = system: caterpillars of the owlet moth (Spodoptera frugiperda); experiment: Spodoptera frugiperda Test; type: in vivo; settings: active compound concentration 0.0001%, after 7 days, dipped cabbage leaves
Method: Spodoptera frugiperda Test
(§1) Solvent: 7 parts by weight of dimethylformamide
(§2) Emulsifier: 1 part by weight of alkylaryl polyglycol ether
(§3) To produce a suitable preparation of active compound, 1 part by weight of active compound is mixed with the stated amount of solvent and the stated amount of emulsifier, and the concentrate is diluted with water to the desired concentration.
Cabbage leaves (Brassica oleracea) are treated by being dipped into the active compound preparation of the desired concentration and populated with caterpillars of the owlet moth (Spodoptera frugiperda) while the leaves are still moist.
(§4) After the desired period of time, the activity in % is determined. 100% means that all caterpillars have been killed; 0% means that none of the caterpillars have been killed.

[2] = system: greenhouse red spider mite (Tetranychus urticae); experiment: Tetranychus Test (OP resistant/spray treatment); type: in vivo; settings: active compound concentration 0.000032%, after 14 days, sprayed bean plants
Method: Tetranychus Test (OP resistant/spray treatment)
Solvent: 3 parts by weight of dimethylformamide
as §2, §3
Bean plants (Phaseolus vulgaris) which are heavily infested by all stages of the greenhouse red spider mite (Tetranychus urticae) are sprayed with an active compound preparation of the desired concentration.
After the desired period of time, the activity in % is determined. 100% means that all the spider mites have been killed; 0% means that none of the spider mites have been killed.

[3] = system: larvae of the mustard beetle (Phaedon cochleariae); experiment: Phaedon Larvae Test; type: in vivo; settings: after 7 days, dipped cabbage leaves
Method: as §1, §2, §3
After the desired period of time, the kill in % is determined. 100% means that all the beetle larvae have been killed; 0% means that none of the beetle larvae have been killed.

[4] = system: caterpillars of the owlet moth (Spodoptera exigua); experiment: Spodoptera exigua Test; type: in vivo; settings: active compound concentration 0.000032%, after 6 days, dipped cabbage leaves
Method: as §1, §2, §3
Cabbage leaves (Brassica oleracea) are treated by being dipped into the active compound preparation of the desired concentration and populated with caterpillars of the owlet moth (Spodoptera exigua), while the leaves are still moist.
as §4

[5] = system: caterpillars of the diamond back moth (Plutella xylostella); experiment: Plutella Test; type: in vivo; settings: active compound concentration 0.000032%, after 7 days, dipped cabbage leaves
Method: as §1, §2, §3
Cabbage leaves (Brassica oleracea) are treated by being dipped into the active compound preparation of the desired concentration and are infested with caterpillars of the diamond back moth (Plutella xylostella), while the leaves are still moist.
as §4

[6] = system: caterpillars of the cotton bollworm (Heliothis armigera); experiment: Heliothis armigera Test; type: in vivo; settings: active compound concentration 0.00016%, after 6 days, dipped soy shoots
Method: as §1, §2, §3
Soy shoots (Glycine max) are treated by being dipped into the active compound preparation of the desired concentration and are populated with caterpillars of the cotton bollworm (Heliothis armigera), while the leaves are still moist.
After the desired period of time, the activity in % is determined. 100% means that all the caterpillars have been killed; 0% means that none of the caterpillars have been killed.

[7] = logP, n-octanol/water partition coefficient by reversed phase HPLC; type: physicochemical; settings: reversed phase HPLC using H2O/CH3CN; for logP (A isomer): A isomer (possible geometric isomer); for logP (B isomer): B isomer (possible geometric isomer)
Lucilia cuprina larvae = experiment: Blowfly Larvae Test/development-inhibitory Action; type: in vivo; settings: active compound concentration 100 ppm
Method: Blowfly Larvae Test/development-inhibitory Action
Test animals: Lucilia cuprina larvae
Solvent: Dimethyl sulphoxide
20 m of active compound are dissolved in 1 ml of dimethyl sulphoxide, and lower concentrations are prepared by dilution with distilled H2O .
About 20 Lucilia cuprina larvae are placed in a test tube containing about 1 cm^3 of horsemeat and 0.5 ml of the active compound preparation to be tested. The activity of the active compound preparation is determined after 24 hours and 48 hours. The test tubes are transferred into beakers whose bottom is covered with sand. After a further 2 days, the test tubes are removed and the pupae are counted.
The activity of the active compound preparation is judged by the number of flies which have hatched after 1.5 times the development period of an untreated control. 100% means that no flies have hatched; 0% means that all flies have hatched normally.

[8] = active compound concentration 0.01%

Fc1cccc(F)c1C1=NC(c2ccc(-c3ccc(OCc4ccc(C(F)(F)F)cc4)cc3)cc2)CO1 (centres unmarked) [Example 1, 2-(2,6-difluorophenyl)-4-[4′-(4″-trifluoromethylbenzyl-oxy)-biphenyl-4-yl]-1,3-oxazoline]
kill [1]: 100% | kill [2]: 98% | kill [3, 8]: 100% | kill [4]: 80% | kill [5]: 85% | kill [6]: 100%

CCC(C)ON=C(C)COc1ccc(-c2ccc(C3COC(c4c(F)cccc4Cl)=N3)cc2)cc1 (mixture of isomers) [Example 3]
logP (A isomer) [7]: 5.90 (A isomer)* | logP (B isomer) [7]: 5.81 (B isomer)* | kill [1]: 100% | kill [3, 8]: 100% | kill [5]: 100% | kill [6]: 100%

CON=C(C)C(C)Oc1ccc(-c2ccc(C3COC(c4ccccc4Br)=N3)cc2)cc1 (mixture of isomers) [Example 92]
logP (A isomer) [7]: 5.08 | logP (B isomer) [7]: 5.18

CCON=CCOc1ccc(-c2ccc(C3COC(c4c(F)cccc4F)=N3)cc2)cc1Cl (centres unmarked) [Example 115]
logP [7]: 4.71

CC(O)C(C)Oc1ccc(-c2ccc(C3COC(c4ccccc4Br)=N3)cc2)cc1 (centres unmarked) [Example 91]
logP [7]: 3.74

CC(C)COc1ccc(-c2ccc(C3COC(c4ccccc4F)=N3)cc2)cc1 (centres unmarked) [Example 108]
logP [7]: 5.34

CCON=CCOc1ccc(-c2ccc(C3COC(c4c(F)cccc4F)=N3)cc2)cc1 (mixture of isomers) [Example 16]
logP (A isomer) [7]: 4.35 (A isomer)* | logP (B isomer) [7]: 4.53 (B isomer)*

CC(=O)C(C)Oc1ccc(-c2ccc(C3COC(c4ccccc4F)=N3)cc2)cc1 (centres unmarked) [Example 100]
logP [7]: 3.79

CCCCON=C(C)C(C)Oc1ccc(-c2ccc(C3COC(c4c(F)cccc4Cl)=N3)cc2)cc1 (mixture of isomers) [Example 49]
logP (A isomer) [7]: 6.23 | logP (B isomer) [7]: 6.09

CC(=NOCC(C)C)C(C)Oc1ccc(-c2ccc(C3COC(c4c(F)cccc4F)=N3)cc2)cc1 (mixture of isomers) [Example 51]
logP (A isomer) [7]: 5.93 | logP (B isomer) [7]: 5.79

CCON=CC(C)(C)Oc1ccc(-c2ccc(C3COC(c4c(F)cccc4F)=N3)cc2)cc1 (centres unmarked) [Example 53]
logP [7]: 5.00

CCCCON=C(C)C(C)Oc1ccc(-c2ccc(C3COC(c4ccccc4Cl)=N3)cc2)cc1Cl (mixture of isomers) [Example 61]
logP (A isomer) [7]: 6.84 | logP (B isomer) [7]: 6.67

Cc1cc(-c2ccc(C3COC(c4c(F)cccc4F)=N3)cc2)ccc1OCC(F)(F)F (centres unmarked) [Example 119]
logP [7]: 4.80

CON=CCOc1ccc(-c2ccc(C3COC(c4c(F)cccc4Cl)=N3)cc2)cc1 (centres unmarked) [Example 112]
logP [7]: 4.27

ClC1(Cl)CC1COc1ccc(-c2ccc(C3COC(c4ccccc4I)=N3)cc2)cc1 (centres unmarked) [Example 22]
logP [7]: 5.43

Cc1cc(-c2ccc(C3COC(c4c(F)cccc4OCC(F)(F)F)=N3)cc2)ccc1OCC(F)(F)F (centres unmarked) [Example 120]
logP [7]: 4.91

CON=CCOc1ccc(-c2ccc(C3COC(c4c(F)cccc4F)=N3)cc2)cc1Cl (centres unmarked) [Example 114]
logP [7]: 4.33

CON=CC(C)(C)Oc1ccc(-c2ccc(C3COC(c4c(F)cccc4F)=N3)cc2)cc1 (centres unmarked) [Example 57]
logP [7]: 4.62

CC(COc1ccc(-c2ccc(C3COC(c4c(F)cccc4Cl)=N3)cc2)cc1)=NOCC(C)C (mixture of isomers) [Example 54]
logP (A isomer) [7]: 5.85 | logP (B isomer) [7]: 5.76

C#CC(C)Oc1ccc(-c2ccc(C3COC(c4c(F)cccc4F)=N3)cc2)cc1 (centres unmarked) [Example 36]
logP [7]: 4.15

CCON=CCOc1ccc(-c2ccc(C3COC(c4c(F)cccc4Cl)=N3)cc2)cc1 (centres unmarked) [Example 113]
logP [7]: 4.65

CCC(C)ON=C(C)COc1ccc(-c2ccc(C3COC(c4c(F)cccc4F)=N3)cc2)cc1 (mixture of isomers) [Example 56]
logP (A isomer) [7]: 5.61 | logP (B isomer) [7]: 5.54

CCCCON=C(C)C(C)Oc1ccc(-c2ccc(C3COC(c4c(F)cccc4F)=N3)cc2)cc1 (mixture of isomers) [Example 52]
logP (A isomer) [7]: 5.94 | logP (B isomer) [7]: 5.80

CC(C)Oc1ccc(-c2ccc(C3COC(c4ccccc4F)=N3)cc2)cc1 (centres unmarked) [Example 107]
logP [7]: 4.65

C#CC(C)Oc1ccc(-c2ccc(C3COC(c4ccccc4Cl)=N3)cc2)cc1 (centres unmarked) [Example 37]
logP [7]: 4.49

CC(=NOC(C)C)C(C)(C)Oc1ccc(-c2ccc(C3COC(c4c(F)cccc4Cl)=N3)cc2)cc1 (centres unmarked) [Example 4]
logP [7]: 6.30 | kill [1]: 100% | kill ([3]; active compound concentration 0.00001%): 100%

CCCCON=C(C)C(C)Oc1ccc(-c2ccc(C3COC(c4c(F)cccc4F)=N3)cc2)cc1Cl (mixture of isomers) [Example 63]
logP (A isomer) [7]: 6.37 | logP (B isomer) [7]: 6.22

CC(=O)C(C)Oc1ccc(-c2ccc(C3COC(c4ccccc4Br)=N3)cc2)cc1 (centres unmarked) [Example 68]
logP [7]: 4.13

CCON=CCOc1ccc(-c2ccc(C3COC(c4ccccc4Cl)=N3)cc2)cc1Cl (centres unmarked) [Example 117]
logP [7]: 5.08

CC(C)(C=O)Oc1ccc(-c2ccc(C3COC(c4c(F)cccc4F)=N3)cc2)cc1 (centres unmarked) [Example 102]
logP [7]: 4.08

CON=CCOc1ccc(-c2ccc(C3COC(c4c(F)cccc4F)=N3)cc2)cc1 (mixture of isomers) [Example 8]
logP (A isomer) [7]: 3.97 (A isomer)* | logP (B isomer) [7]: 4.14 (B isomer)*

CCCCON=C(C)COc1ccc(-c2ccc(C3COC(c4c(F)cccc4F)=N3)cc2)cc1 (mixture of isomers) [Example 55]
logP (A isomer) [7]: 5.58 | logP (B isomer) [7]: 5.51

CCON=C(COc1ccc(-c2ccc(C3COC(c4c(F)cccc4F)=N3)cc2)cc1)C(C)(C)C=C(Cl)Cl (mixture of isomers) [Example 42]
logP (A isomer) [7]: 6.48 | logP (B isomer) [7]: 6.37

CON=CCOc1ccc(-c2ccc(C3COC(c4ccccc4Cl)=N3)cc2)cc1Cl (centres unmarked) [Example 116]
logP [7]: 4.72

CC(C)Oc1ccc(-c2ccc(C3COC(c4ccccc4Br)=N3)cc2)cc1 (centres unmarked) [Example 5]
activity (development-inhibitory action, flies not hatched) (Lucilia cuprina larvae): 100%
